Where two headings read alike, the source gives them in different places.
Tests used:
[1] = biological target: T1, Drosophila OR49b (Drosophila melanogaster, UniProt Q9V6H2); experiment: cell-based; details: for Average response: OR49b cell line, mean of biological replicates
T1 construct: expressed in transfected cells
T1 sequence (Q9V6H2 1-375): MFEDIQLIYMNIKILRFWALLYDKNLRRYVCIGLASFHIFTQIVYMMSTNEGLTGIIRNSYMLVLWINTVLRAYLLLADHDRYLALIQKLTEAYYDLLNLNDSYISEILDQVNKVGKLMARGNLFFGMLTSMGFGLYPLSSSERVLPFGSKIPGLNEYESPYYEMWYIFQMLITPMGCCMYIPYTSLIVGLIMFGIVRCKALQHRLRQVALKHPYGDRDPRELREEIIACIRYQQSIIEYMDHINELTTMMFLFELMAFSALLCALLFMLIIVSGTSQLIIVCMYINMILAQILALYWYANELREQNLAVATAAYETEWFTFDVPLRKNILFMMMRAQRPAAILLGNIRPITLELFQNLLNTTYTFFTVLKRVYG
T1 sequence (Q9VNB5 1-486 partner): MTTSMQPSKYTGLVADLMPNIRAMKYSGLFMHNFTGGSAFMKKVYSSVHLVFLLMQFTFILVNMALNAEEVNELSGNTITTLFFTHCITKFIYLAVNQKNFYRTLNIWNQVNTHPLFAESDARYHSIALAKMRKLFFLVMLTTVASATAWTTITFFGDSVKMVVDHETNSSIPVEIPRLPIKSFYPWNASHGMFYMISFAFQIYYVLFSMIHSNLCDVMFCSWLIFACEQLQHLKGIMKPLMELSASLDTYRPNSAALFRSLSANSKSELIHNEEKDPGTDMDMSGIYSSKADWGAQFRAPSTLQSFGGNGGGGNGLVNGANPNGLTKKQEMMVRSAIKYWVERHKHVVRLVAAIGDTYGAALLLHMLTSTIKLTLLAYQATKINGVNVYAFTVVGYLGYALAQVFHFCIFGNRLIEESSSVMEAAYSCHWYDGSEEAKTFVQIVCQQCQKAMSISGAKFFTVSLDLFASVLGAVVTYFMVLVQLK
Summary of the method: (§1)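 Responses are VUAA1-normalized ΔF: each VOC-evoked calcium signal, (FMAX−F0)/F0 over 30 s after injection, divided by the same line's mean 50 µM VUAA1 response. Cells were doxycycline-induced HEK293 with GCaMP6 and the cognate Drosophila OR, in HEPES buffer pH 7.3; ligands tested 0.01–100 μM.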

[2] = biological target: T2, Drosophila OR71a (Drosophila melanogaster, UniProt Q9VUK5); experiment: Calcium ion fluorescence (GCaMP6) assay, OR71a stable HEK293 cell line; type: cell-based; details: for Average response: OR71a cell line, VUAA1-normalized response, mean of biological replicates
T2 construct: expressed in transfected cells
T2 sequence (Q9VUK5 1-378): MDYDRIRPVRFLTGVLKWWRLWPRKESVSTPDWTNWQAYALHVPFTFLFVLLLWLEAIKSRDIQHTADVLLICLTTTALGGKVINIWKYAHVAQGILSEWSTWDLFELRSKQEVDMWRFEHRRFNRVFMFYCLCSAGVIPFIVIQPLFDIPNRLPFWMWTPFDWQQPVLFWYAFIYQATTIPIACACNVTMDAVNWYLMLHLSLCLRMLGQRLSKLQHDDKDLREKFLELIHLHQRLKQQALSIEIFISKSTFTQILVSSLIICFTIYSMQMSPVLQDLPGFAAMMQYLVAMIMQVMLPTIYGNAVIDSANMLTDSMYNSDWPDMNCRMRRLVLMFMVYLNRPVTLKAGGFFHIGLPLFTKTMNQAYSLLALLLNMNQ
T2 sequence (Q9VNB5 1-486 partner): T1 sequence (Q9VNB5 1-486 partner)
Summary of the method: as §1

[3] = HEK293, read-out: OR71a response (VUAA1-normalized response)
[4] = ligand concentration 1 (unit not given), threshold 0.05, below shown as 0
[5] = ligand concentration 10 (unit not given), threshold 0.05, below shown as 0
[6] = ligand concentration 100 (unit not given), threshold 0.05, below shown as 0

SMILES: C=CC(O)C/C=C\CC (stereo not shown) [(5Z)-octa-1,5-dien-3-ol]
- DF norm AVERAGE OR49b [1]: 0
- activation at 1 µM ([1]; HEK293, VOC concentration 1 μM, read-out: OR49b response (VUAA1-normalized response)): 0%
- activation at 10 µM ([1]; HEK293, VOC concentration 10 μM, read-out: OR49b response (VUAA1-normalized response)): 0%
- activation at 100 µM ([1]; HEK293, VOC concentration 100 μM, read-out: OR49b response (VUAA1-normalized response)): 0%
- Average response ([1]; odorant cc. 1 µM): 0.00
- Average response ([1]; odorant cc. 10 µM): 0.04
- Average response ([1]; odorant cc. 100 µM): 0.00
- activation at 1 µM [2, 3]: 0%
- activation at 10 µM [2, 3]: 0%
- activation at 100 µM [2, 3]: 0%
- Average response ([2]; cc. 1 µM): 0.00
- Average response ([2]; cc. 10 µM): 0.0228
- Average response ([2]; cc. 100 µM): 0.00
- DF norm AVERAGE OR71a ([2]; concentration 1, normalized fluorescence change, values below 0.05 threshold given as 0): 0
- DF norm AVERAGE OR71a ([2]; concentration 10, normalized fluorescence change, values below 0.05 threshold given as 0): 0
- DF norm AVERAGE OR71a ([2]; concentration 100, normalized fluorescence change, values below 0.05 threshold given as 0): 0

SMILES: CC/C=C/CCO [e3-hexenol]
- Average response ([1]; odorant cc. 1 µM): 0.00
- Average response ([1]; odorant cc. 10 µM): 0.00
- Average response ([1]; odorant cc. 100 µM): 0.08
- DF norm AVERAGE OR49b [1, 4]: 0
- DF norm AVERAGE OR49b [1, 5]: 0
- DF norm AVERAGE OR49b [1, 6]: 0.07888
- Average response ([2]; cc. 1 µM): 0.00
- Average response ([2]; cc. 10 µM): 0.0432
- Average response ([2]; cc. 100 µM): 0.0275
- DF norm AVERAGE OR71a [2, 4]: 0
- DF norm AVERAGE OR71a [2, 5]: 0
- DF norm AVERAGE OR71a [2, 6]: 0

From article PMC10709440, “High-throughput ligand profile characterization in novel cell lines expressing seven heterologous insect olfactory receptors for the detection of volatile plant biomarkers” (Scientific Reports, 2023)
